Experiments:
[1] = system: herpes simplex virus (HSV); conditions: human clinical studies; cited from earlier work
[2] = Accelerated stability testing of packaged final product; type: physicochemical; conditions: 40° C., 75% RH
Procedure: Accelerated stability testing was conducted by varying the water content of ganciclovir between 1.99% w/w and 2.54% w/w. The packages of final product were stored at 40° C. and 75% RH for a period of three months. At predetermined intervals, some of the packages were opened and analyzed to determine the amount of active ingredient, related impurities (RS), and water content present in the formulation.

[3] = Moisture uptake by ganciclovir in an open Petri dish; type: physicochemical; conditions: ganciclovir containing 1.99% water, 25° C., 60% RH
Procedure: Different formulations containing variable percentages of water were subjected to stability and moisture uptake studies. For example, ganciclovir containing 1.99% water content was subjected to moisture uptake at 25° C. and 60% relative humidity (RH) in an open Petri dish and the increase in weight was monitored.

cytomegalovirus (CMV) = conditions: human clinical studies; cited from earlier work

Nc1nc2c(ncn2COC(CO)CO)c(=O)[nH]1 [ganciclovir, 9-(1,3-dihydroxy-2-propoxymethyl) guanine]
activity against herpes simplex virus (HSV) [1]: active | initial purity retained ([2]; after one month): at least 97% | purity lost ([2]; after one month): less than about three percent | initial purity retained ([2]; after three months): at least 87% | purity lost ([2]; after three months): less than about five percent | initial purity retained ([2]; after two months): at least 96% | purity lost ([2]; after two months): less than about four percent | Increase in moisture during storage [3]: no appreciable increase in moisture during storage | Moisture gain ([3]; 2.0 hrs): 0.12 % w/w | Moisture gain ([3]; 4.0 hrs): 0.38 % w/w | Moisture gain ([3]; 8.0 hrs): 0.46 % w/w | Moisture gain ([3]; 48.0 hrs): 0.49 % w/w | Moisture gain ([3]; 168.0 hrs (1 week)): 0.50 % w/w | activity against cytomegalovirus (CMV) (cytomegalovirus (CMV)): active

— patent US20060189565A1, “Pharmaceutical compositions of ganciclovir” (priority 2002, published 2006)
